According to patent publication US20070009529A1, “Agents that dissolve arterial thrombi” (New York University, priority 2002, published 2007):
Entries after “also recorded” stand apart in the source; their conditions may differ. Where two headings read alike, the source gives them in different places. *: point of attachment. Biotin = O=C1N[C@H]2[C@H](CS[C@H]2CCCCC(=O)*)N1

Legend:
platelets [1] = test: Effect of inhibitors on anti-GPIIIa49-66 Ab-induced platelet particle formation / oxidative fragmentation; type: cell-based, human; set-up: effect on Ab-induced platelet particle formation: unit of the concentration uncertain
Method: Induction of Platelet Particles. […] 1×10^7 gel-filtered platelets/ml were labelled with an anti-GPIIb-FITC monoclonal Ab (MoAb) (3B2) or an anti-GPIIIa-FITC MoAb (Ancell, Bayport, Minn.), 10 ug/ml for 30 min at 4° C., centrifuged at 1000 g×6 min at room temperature, and resuspended in Tyrodes buffer. […] (see below).
Debris and dead cells were excluded using scatter gates. Only cells with low orthogonal light scattering were included in the sorting gates. Gates were adjusted for control platelets by exclusion of other blood cells. Intact platelets were monitored in the right upper quadrant (RUQ) with the Y-axis measuring forward-scatter and the X-axis measuring fluorescence. A shift in the fluorescent particles from RUQ to LUQ reflected % platelet particle induction of 10,000 counted platelets/particles.
However, a recent report by Lerner and coworkers [19]provided evidence that Ab's in general are capable of inducing peroxide formation from an assortment of Ag's depending upon the tryptophan and cysteine composition and orientation. […] This hypothesis was tested with the use of diphenyleneiodonium (DPI), an inhibitor of NADH/NADPH oxidase, as well as other flavoprotein oxidases.

platelets [2] = test: Platelet oxidation/fragmentation induced independently of anti-GPIIIa49-66 (DCHF-loaded platelets); type: cell-based
[3] = test system: p47phox(−/−), gp91phox(−/−)KO, 12-LO(−/−)KO mouse platelets; test: Platelet oxidation in NADPH oxidase and 12-LO KO mouse platelets; type: cell-based; settings: gp91phox(−/−)KO and 12-LO(−/−)KO mouse platelets
Method: It has also been discovered that platelet oxidation/fragmentation can be induced independently of anti-GPIIIa49-66 by […] A23187, a Ca^++ ionophore, or 0.4 μM PMA, a protein kinase C activator. […] Their reactivity is inhibited by the oxidation scavengers catalase (H2O2) and DPI (diphenylene iodonium, an inhibitor of NADPH-oxidase), and is absent in NADPH oxidase p47phox(−/−), gp91phox(−/−)KO as well as 12-LO(−/−)KO mouse platelets. Thus, anti-GPIIIa49-66 could be inducing the intracellular effects of ionophore and PMA.

platelets [4] = test: Ca++ flux (fura-2, AM) in activation of oxidative platelet death
mice = settings: earlier reports [10], [14]; cited from earlier work
platelets [5] = test: Inhibition of HUVEC ADAMTS-18 induced platelet oxidation fragmentation; type: cell-based; settings: single agent, n=7
From the text: Recombinant ADAMTS-18 was then made with the expression vector pBudCE4.1 in 293T cells. This peptide induced platelet 12(S)—HETE and oxidation/fragmentation in an identical kinetic fashion as anti-GPIIIa49-66 antibody. Both expressed rADAMTS-18, and HUVEC conditioned media ADAMTS-18 could be activated by thrombin (0.5μ/mL and then neutralized with hirudin), with optimum effect at one hour (n=4). HUVEC ADAMTS-18 induced oxidation fragmentation could be inhibited about 50% by an scFV antibody raised against the ADAMTS-18 (18-mer) peptide as well as GPIIIa49-66 peptide, as well as RGDS (GPIIIa ligand binding site) (n=7).

[6] = inhibitor at 2 (unit uncertain)
[7] = 4 Hrs, doubling concentrations from 50 uM/ml catalase and 5 uM/ml DPI, no UV/light irradiation

Molecule: O=CC[C@@H](O)[C@H](O)[C@H](O)CO [2-deoxyglucose]
- effect on Ab-induced platelet particle formation (platelets [1]; inhibitor at 3 (unit uncertain)): unsuccessful

Molecule: CNc1ccc2oc(C[C@H]3O[C@@]4(CC[C@H]3C)O[C@H]([C@H](C)C(=O)c3ccc[nH]3)[C@H](C)C[C@H]4C)nc2c1C(=O)O [A23187, calcimycin]
- induction of platelet oxidation/fragmentation (platelets [2]): induced
- oxidation of platelets loaded with the oxidative fluorochrome DCHF (platelets [2]): induce oxidation
- reactivity (platelet oxidation) in KO mouse platelets [3]: absent

Molecule: O=C(O)CN(CC(=O)O)c1ccccc1OCCOc1ccccc1N(CC(=O)O)CC(=O)O [BAPTA]
- inhibition of Ca++ flux (platelets [4]; 10 microM): completely inhibited

Molecule: COc1cc2c(c(OC)c1OC)-c1ccc(OC)c(=O)cc1[C@@H](NC(C)=O)CC2 [Colchicine]
- effect on Ab-induced platelet particle formation (platelets [1]; [6]): unsuccessful

Molecule: c1ccc2c(c1)[I+]c1ccccc1-2 [DPI, diphenyleneiodonium]
- effect of oxidation scavenger on reactivity of A23187 and PMA (platelets [2]): inhibited
- effect on Ab-induced platelet particle formation (platelets [1]; [7]): inhibition; also recorded: inhibited

Molecule: O=C(O)CN(CCOCCOCCN(CC(=O)O)CC(=O)O)CC(=O)O [EGTA, ethylenebis(oxyethylenenitrilo)tetraacetic acid]
- inhibition of Ca++ flux (platelets [4]; 100 μM): completely inhibited

Molecule: COC(=O)CC(NC(=O)OC(C)(C)C)C(=O)CF (stereo not drawn) [FK-011]
- effect on Ab-induced platelet particle formation (platelets [1]; inhibitor at 100 uM): unsuccessful

Molecule: CC1CNCCN1S(=O)(=O)c1cccc2cnccc12 (stereo not drawn) [H-7]
- effect on Ab-induced platelet particle formation (platelets [1]; inhibitor at 40 uM): unsuccessful

Molecule: [N-]=[N+]=[N-].[Na+] [NaAz]
- effect on Ab-induced platelet particle formation (platelets [1]): unsuccessful

Molecule: CCCCC[C@H](O)/C=C/[C@H]1[C@H](O)CC(=O)[C@@H]1CCCCCCC(=O)O [PGE1]
- oxidative fragmentation/death in the presence of the agent (platelets [1]; agent at 1 μM, n=6): not induced

Molecule: CCCCCCCCCCCCCC(=O)O[C@@H]1[C@@H](C)[C@@]2(O)[C@@H](C=C(CO)C[C@]3(O)C(=O)C(C)=C[C@@H]23)[C@@H]2C(C)(C)[C@]12OC(C)=O [PMA, phorbol 12-myristate 13-acetate]
- oxidation of platelets loaded with the oxidative fluorochrome DCHF (platelets [2]): induce oxidation
- induction of platelet oxidation/fragmentation (platelets [2]; 0.4 μM): induced
- reactivity (platelet oxidation) in KO mouse platelets [3]: absent

Molecule: O=S(=O)(F)Cc1ccccc1 [PMSF]
- effect on Ab-induced platelet particle formation (platelets [1]; [6]): unsuccessful

Molecule: Oc1ncnc2[nH]ncc12 [allopurinol]
- effect on Ab-induced platelet particle formation (platelets [1]; inhibitor at 200 uM): failed to inhibit

Molecule: C=C1[C@@H](C)[C@H]2[C@H](Cc3ccccc3)NC(=O)[C@]23[C@H](OC(C)=O)/C=C/[C@@](C)(O)C(=O)[C@@H](C)C/C=C/[C@H]3[C@@H]1O [cytochalasin D]
- effect on Ab-induced platelet particle formation (platelets [1]; inhibitor at 10 uM): unsuccessful

Molecule: COc1ccc2c(c1)c(CC(=O)O)c(C)n2C(=O)c1ccc(Cl)cc1 [indomethacin]
- effect on Ab-induced platelet particle formation (platelets [1]; inhibitor at 20 uM): failed to inhibit

Molecule: CC(=O)N[C@@H](CC(C)C)C(=O)N[C@@H](CC(C)C)C(=O)N[C@H](C=O)CCCNC(=N)N [leupeptin]
- effect on Ab-induced platelet particle formation (platelets [1]; inhibitor at 5 ug/ml): unsuccessful

Molecule: CN[C@@H]1C[C@H]2O[C@@](C)([C@@H]1OC)n1c3ccccc3c3c4c(c5c6ccccc6n2c5c31)C(=O)NC4 [staurosporine]
- effect on Ab-induced platelet particle formation (platelets [1]; inhibitor at 200 uM): unsuccessful

Molecule: CC[C@]1(O)C[C@@H]2CN(CCc3c([nH]c4ccccc34)[C@@](C(=O)OC)(c3cc4c(cc3OC)N(C)[C@H]3[C@@](O)(C(=O)OC)[C@H](OC(C)=O)[C@]5(CC)C=CCN6CC[C@]43[C@@H]65)C2)C1 [vinblastine]
- effect on Ab-induced platelet particle formation (platelets [1]; inhibitor at 0.2 (unit uncertain)): unsuccessful

Molecule: CAPESIEFPVSEARVLED [GPIIIa49-66 peptide]
- prevention or reversal of murine thrombocytopenia induced by anti-GPIIIa49-66 Ab (mice): prevented or reversed
- inhibition of HUVEC ADAMTS-18 induced oxidation fragmentation (platelets [5]): about 50%

Molecule: RGDS
- inhibition of HUVEC ADAMTS-18 induced oxidation fragmentation (platelets [5]): about 50%

Molecule: bio-VQTRSVHCVQQGRPSSSC—OH (Biotin-VQTRSVHCVQQGRPSSSC-OH; cysteine pairing not given here) [18-mer peptide from the C-terminal TSP motif of ADAMTS-18, conjugated to biotin]
- platelet oxidation/fragmentation (platelets [2]; peptide alone): no effect
- platelet oxidation/fragmentation (platelets [2]; peptide clustered with an anti-biotin antibody, n=6): did induce oxidation/fragmentation

Molecule: calpastatin
- effect on Ab-induced platelet particle formation (platelets [1]; inhibitor at 100 uM): unsuccessful

Molecule: catalase
- effect of oxidation scavenger on reactivity of A23187 and PMA (platelets [2]): inhibited
- effect on Ab-induced platelet particle formation (platelets [1]; [7]): could inhibit the reaction; also recorded: inhibited

Molecule: superoxide dismutase
- effect on Ab-induced platelet particle formation (platelets [1]; [7]): inhibited

B1: HUVEC conditioned media ADAMTS-18: ADAMTS-18 in HUVEC conditioned media (protein, UniProt Q8TE60 285-1221, looked up)
A disintegrin and …: SAGKSQKGLNVETLVVADKKMVEKHGKGNVTTYILTVMNMVSGLFKDGTIGSDINVVVVSLILLEQEPGGLLINHHADQSLNSFCQWQSALIGKNGKRHDHAILLTGFDICSWKNEPCDTLGFAPISGMCSKYRSCTINEDTGLGLAFTIAHESGHNFGMIHDGEGNPCRKAEGNIMSPTLTGNNGVFSWSSCSRQYLKKFLSTPQAGCLVDEPKQAGQYKYPDKLPGQIYDADTQCKWQFGAKAKLCSLGFVKDICKSLWCHRVGHRCETKFMPAAEGTVCGLSMWCRQGQCVKFGELGPRPIHGQWSAWSKWSECSRTCGGGVKFQERHCNNPKPQYGGLFCPGSSRIYQLCNINPCNENSLDFRAQQCAEYNSKPFRGWFYQWKPYTKVEEEDRCKLYCKAENFEFFFAMSGKVKDGTPCSPNKNDVCIDGVCELVGCDHELGSKAVSDACGVCKGDNSTCKFYKGLYLNQHKANEYYPVVLIPAGARSIEIQELQVSSSYLAVRSLSQKYYLTGGWSIDWPGEFPFAGTTFEYQRSFNRPERLYAPGPTNETLVFEILMQGKNPGIAWKYALPKVMNGTPPATKRPAYTWSIVQSECSVSCGGGYINVKAICLRDQNTQVNSSFCSAKTKPVTEPKICNAFSCPAYWMPGEWSTCSKACAGGQQSRKIQCVQKKPFQKEEAVLHSLCPVSTPTQVQACNSHACPPQWSLGPWSQCSKTCGRGVRKRELLCKGSAAETLPESQCTSLPRPELQEGCVLGRCPKNSRLQWVASSWSECSATCGLGVRKREMKCSEKGFQGKLITFPERRCRNIKKPNLDLEETCNRRACPAHPVYNMVAGWYSLPWQQCTVTCGGGVQTRSVHCVQQGRPSSSCLLHQKPPVLRACNTNFCPAPEKREDPSCVDFFNWCHLVPQHGVCNHKFYGKQCCKSCTRKI
modifications: natural, HUVEC conditioned media
notes: ADAMTS-18 in HUVEC conditioned media
- time of optimum effect of activation by thrombin (platelets [2]; thrombin 0.5μ/mL, then neutralized with hirudin, n=4): one
